Consider one compound from ChEMBL document CHEMBL1155823, “The effect of 5-alkyl modification on the biological activity of pyrrolo[2,3-d]pyrimidine containing classical and nonclassical antifolates as inhibitors of dihydrofolate reductase and as antitumor and/or antiopportunistic infection agents” (J Med Chem, 2008).

In one experiment the test system is K562. Nature of the experiment: cells. To be noted: Homo sapiens.
A further experiment deals with HT-29. In words: cells. To be noted: Homo sapiens.
Another experiment relates to LOX IMVI. Nature of the experiment: cells. To be noted: Homo sapiens.
Experiment [1] concerns the target T1, Dihydrofolate reductase (Pneumocystis carinii, UniProt P16184).
T1 sequence (P16184 whole entry): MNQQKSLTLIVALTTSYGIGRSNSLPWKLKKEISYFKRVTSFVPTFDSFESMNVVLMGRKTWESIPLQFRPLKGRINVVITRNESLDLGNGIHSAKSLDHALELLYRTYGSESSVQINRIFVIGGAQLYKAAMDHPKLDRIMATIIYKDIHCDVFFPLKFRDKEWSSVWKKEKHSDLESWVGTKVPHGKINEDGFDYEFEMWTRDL
Description: Inhibition of Pneumocystis carinii DHFR using dihydrofolic acid substrate and NADPH cofactor

In experiment [2] the target is T2, Dihydrofolate reductase (Rattus norvegicus, UniProt Q920D2).
T2 sequence (Q920D2 whole entry): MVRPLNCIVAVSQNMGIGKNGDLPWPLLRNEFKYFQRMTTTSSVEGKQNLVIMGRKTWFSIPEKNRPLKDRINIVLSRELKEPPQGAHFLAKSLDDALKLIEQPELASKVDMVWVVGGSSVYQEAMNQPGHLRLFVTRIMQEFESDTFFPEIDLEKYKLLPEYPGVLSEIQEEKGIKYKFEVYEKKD

Another experiment has as its system ACHN. Nature of the experiment: cells. The note with it: Homo sapiens.
A short description of another experiment: cells. The note with it: Homo sapiens, HL-60.
The subject of the next experiment is MCF7. Nature of the experiment: cells. To be noted: Homo sapiens.
The next experiment concerns CAKI-1. In words: cells. To be noted: Homo sapiens.
A further experiment concerns PC-3. Nature of the experiment: cells. To be noted: Homo sapiens.
A further experiment deals with MOLT-4. In words: cells. The note with it: Homo sapiens.
The test system of a further experiment is 786-0. Nature of the experiment: cells. To be noted: Homo sapiens.
For a further experiment, the system named is SW-620. Nature of the experiment: cells. The note with it: Homo sapiens.
Another experiment relates to NCI-H460. Nature of the experiment: cells. The note with it: Homo sapiens.
A further experiment deals with SF-268. Nature of the experiment: cells. To be noted: Homo sapiens.

Description for ACHN: Cytotoxicity against human ACHN cells
Description for CAKI-1: Cytotoxicity against human CAKI1 cells
Description for HT-29: Cytotoxicity against human HT29 cells
Description for K562: Cytotoxicity against human K562 cells
Description for LOX IMVI: Cytotoxicity against human LOXIMVI cells
Description for MCF7: Cytotoxicity against human MCF7 cells
Description for MOLT-4: Cytotoxicity against human MOLT4 cells
Description for NCI-H460: Cytotoxicity against human NCI-H460 cells
Description for PC-3: Cytotoxicity against human PC3 cells
Description for SF-268: Cytotoxicity against human SF268 cells
Description for SW-620: Cytotoxicity against human SW620 cells

As for `CCCc1c(Sc2ccc(C(=O)N[C@@H](CCC(=O)O)C(=O)O)cc2)[nH]c2nc(N)nc(N)c12`, the GI50 in the experiment with K562 is 952 nM; in the experiment on HT-29 it was 9580 nM; in the experiment with LOX IMVI, less than 10 nM; in the experiment with ACHN, 15200 nM; in the experiment “cells”, 1280 nM; with MCF7, 164 nM. For the same compound, the GI50 is 376 nM in the experiment with CAKI-1; more than 100000 nM in the experiment with PC-3; 19400 nM with MOLT-4; 12.8 nM in the experiment on 786-0; 1210 nM in the experiment with SW-620; 267 nM in the experiment with NCI-H460. In the experiment on SF-268, this compound came in with a GI50 of 1610 nM. Moreover, the IC50 worked out at 3.11 nM on Dihydrofolate reductase [1] and 60 nM on Dihydrofolate reductase [2].

Usually GI50 stands for the concentration giving 50% growth inhibition. Read a high GI50 as less potent growth inhibition. A word on the IC50: it is the concentration that gives 50% inhibition. Read a high IC50 as weaker potency.
